Measured values published in patent publication US11400131B2, “Multi-peptide composition” (King's College London, priority 2015, dated 2022).

Columns and labels:
[1] = system: peripheral blood mononuclear cells; test: IFN-γ ELISPOT response of Type 1 diabetes patients to nested IA-2 peptides; assay type: cell-based, human; conditions: nested peptides compared with parental sequences; response positive when SI ≥3; FIG. 1
Method: Detection of interferon (IFN)-γ by CD4^+ T cells in response to peptide stimulation was carried out using an enzyme-linked immunospot (ELISPOT) assay that has significant discriminative ability for type 1 diabetes in blinded proficiency testing, as previously described (Arif, S. et al. J Clin Invest 2004; 113: 451-463 and Herold, K. C. et al. Diabetes 2009; 58: 2588-2595). Data are expressed as the mean number of spots per triplicate and compared with the mean spot number in the presence of diluent alone (stimulation index; SI). A response is considered positive when the SI is ≥3 using cut-offs determined using receiver-operator characteristic plots as previously described (Arif, S. et al. J Clin Invest 2004; 113: 451-463).
The results are shown for 3 parental sequences (cross-hatched), and these are compared with shorter nested sequence peptides. Responses represent IFN-γ production by peripheral blood mononuclear cells cultured with each peptide, as detected using an enzyme-linked immunospot assay.

[2] = system: proinsulin; test: Serum proinsulin specific IgG after mono-/multi-PI treatment; assay type: in vivo, HLA-DR4-Tg mice; conditions: 4 weekly intradermal injections of individual peptide; FIG. 4E-F
Method: In brief, tolerance to proinsulin was breached in mice by subcutaneous immunisation with 100 μg proinsulin protein emulsified in CFA and treatment with intraperitoneal pertussis toxin immediately and 1 day after immunisation. Mice then received 4 weekly intradermal treatments of 10 μg control-PI or proinsulin mono/multi-PI (C13-32 (SEQ ID NO: 4); C19-A3 (SEQ ID NO: 5); C22-A5 (SEQ ID NO:6)), before subcutaneous immunisation with 100 μg proinsulin protein emulsified in IFA to boost the ongoing autoimmune response (A). Lymph nodes (LNs) were harvested 7 days later and LN cell suspensions were cultured with or without proinsulin protein or peptide (C13-32; C19-A3; C22-A5) for 48 hours in vitro. Proliferation of CD4^+ T cells and IFN-γ production were analysed by CFSE dilution at 96 hours (B) and ELISA at 48 hours (C) in response to in vitro stimulation with 50 μg/mL proinsulin protein and 10 μg/mL peptides (C13-32; C19-A3; C22-A5). Serum levels of proinsulin specific IgG1 were measured at day 42 (D). Percentages of proliferating CD3^+CD4^+CD25^highFoxP3^+ Tregs were measured by flow cytometry in LN cultures at day 42 (E). Data are representative of three independent experiments. *p<0.05, **p<0.01, ***p<0.001; Statistical significance was determined by one-way ANOVA or Student's t test. 15 mice per group in B and C; 5 mice per group D-F.
Tolerance to proinsulin was breached in mice by subcutaneous immunisation with 100 μg proinsulin protein emulsified in CFA and treatment with intraperitoneal pertussis toxin immediately and 1 day after immunisation. […] Proliferation and cytokine production were analysed by thymidine incorporation and ELISA and the mean±SEM proliferation in response to 50 μg/mL proinsulin (B) and IFN-γ production in response to 50 μg/mL proinsulin (C) or 10 μg/mL proinsulin peptides, in DLN cultures is shown. Percentage of proliferating CD3^+CD4^+CD25^highFoxP3^+ Tregs was measured by flow cytometry in LN cultures at day 42 (E). Serum levels of proinsulin specific IgG1 were measured at day 42 (F). […]

Substance	proportion of Type 1 diabetes patients responding (IFN-γ production) [1]	therapeutic potency of mono-PI in contrast to multi-PI [2]
855-67: fragment of IA-2, comprising residues 855-867 (YLKNVQTQETRTL; listed as Homo sapiens) [Group 855-67]	preferential sequences	
C22-A5: fragment of PI, comprising residues C22-A5 (QPLALEGSLQKRGIVEQ; listed as Homo sapiens) [Group C22-A5]		lower levels of therapeutic potency
718-36: fragment of IA-2, comprising residues 718-736 (AYQAEPNTCATAQGEGNIK; listed as Homo sapiens) [Group 718-36]	preferential sequences	
C13-32: fragment of PI, comprising residues C13-C32 (GGGPGAGSLQPLALEGSLQK; listed as Homo sapiens) [Group C13-32]		lower levels of therapeutic potency
C19-A3: fragment of PI, comprising residues C19-A3 (GSLQPLALEGSLQKRGIV; listed as Homo sapiens) [Group C19-A3]		lower levels of therapeutic potency
